Test: Release of the active ingredient from the particle by lowering of the pH, followed by UV-visible spectrometry
Assay type: physicochemical
Text: Once the particle was synthesised we verified by UV-visible spectrometry the possibility of releasing the medicament by simple lowering of the pH.

## COc1ccc2c(c1)c(CC(=O)O)c(C)n2C(=O)c1ccc(Cl)cc1 [indomethacin]
Lowering of the pH, release from the particle
  release of the medicament by simple lowering of the pH: progressive and controlled release
pH equal to 3, in 48 hours, indomethacin covalently bonded inside the particle (NB-PCL-POE-OMe stabilised latex)
  indomethacin salted out (released) from the particle: more than 85%

Reference: US20090123555A1, “Stimulateable Polymer Particles Exhibiting Reactive Functions, Method for the Production and the Use Thereof” (CENTRE NATIONAL DE LA RECHER CHE SCIENTIFIQUE, priority 2004, published 2009)
